Source: patent publication US5412098A, “Quinolone derivative or salt thereof and antibacterial containing the same” (Wakunaga Seiyaku Kabushiki Kaisha, priority 1991, dated 1995)
Converted amounts (≈) assume the structure as drawn.

What was measured:
P. aeruginosa (IFO 3445) = experiment: Minimum inhibitory concentration, standard method of Japan Society of Chemotherapy, P. aeruginosa; type: cell-based; settings: Pseudomonas aeruginosa, IFO3445
Experimental: (§1) Antibacterial activity, absorption and excretion of the compounds indicated in Examples were tested as follows.
(§2) The minimum inhibitory concentration (MIC: microgram/ml) is measured by the standard method of Japan Society of Chemotherapy, (Chemotherapy, Volume 29, No.1, pp.76-79, 1981). The results are shown in Table 52 in which compound numbers are the same as those indicated in Examples.

[1] = Recovery in bile after oral administration (disk method, Bacillus subtilis ATCC 6633); type: in vivo; settings: rat, 20 mg/kg, rats, prepared as in urine test (20 mg/10 ml/kg), read-out: Excretion Rate, In Bile
Experimental: (§3) The absorption and excretion after oral administration of the compounds of the present invention were tested by measuring the recovery in urine and bile as follows.
A subject compound was prepared in the same manner as the recovery test in urine and was orally administered to the rats. The bile was collected by using a polyethylene tube inserted into the choledochus over 24 hours. The concentration of the subject compound in the bile sample was examined in the same manner as the recovery in urine to obtain an excretion rate in bile for 24 hours.

[2] = system: S. aureus 209P (IFO 12732); experiment: Minimum inhibitory concentration, standard method of Japan Society of Chemotherapy, S. aureus 209P; type: cell-based; settings: Staphylococcus aureus
Experimental: as §1, §2

[3] = Recovery in urine after oral administration (disk method, Bacillus subtilis ATCC 6633); type: in vivo, male JCL-SD rats; settings: rat, 20 mg/kg, rats, 20 mg/10 ml/kg in 0.5% methylcellulose, fasted overnight, read-out: Excretion Rate, In Urine
Experimental: as §3
To a group of three male JCL-SD rats (6 weeks old) fasted overnight, a subject compound was orally administered as prepared to be 20 mg/10 ml/kg with 0.5% of methylcellulose solution. The sampling was carried out by collecting urine in 0 to 6 hours and 6 to 24 hours. The concentration of the subject compound in the urine was examined by a disk method by using Bacillus subtilis ATCC 6633 as a testing bacillus to obtain an excretion rate in urine for 24 hours.

[4] = system: E. Coli NIH JC-2 (IFO 12734); experiment: Minimum inhibitory concentration, standard method of Japan Society of Chemotherapy, E. Coli NIH JC-2; type: cell-based; settings: Escherichia coli, IFO12734
Experimental: as §1, §2

SMILES | MIC (P. aeruginosa (IFO 3445)) | dose excreted at 24 h [1] | MIC [2] | dose excreted at 24 h [3] | MIC [4]
C[C@@H]1CN(c2nc3c(cc2F)c(=O)c(C(=O)O)cn3-c2cnsn2)C[C@@H]1N (single isomer, unassigned) [Compound 19] | 0.39 µg/mL (≈ 0.999 µM) | 4.4% | 0.1 µg/mL (≈ 0.256 µM) | 80.6% | < 0.013 µg/mL
N[C@H]1CCN(c2c(F)cc3c(=O)c(C(=O)O)cn(Cc4cnsn4)c3c2F)C1 [Compound 126] | 3.13 µg/mL (≈ 7.68 µM) | – | 0.39 µg/mL (≈ 0.957 µM) | – | 3.13 µg/mL (≈ 7.68 µM)
N[C@H]1CCN(c2nc3c(cc2F)c(=O)c(C(=O)O)cn3-c2csnn2)C1 [Compound 58] | 0.39 µg/mL (≈ 1.04 µM) | – | 1.56 µg/mL (≈ 4.14 µM) | – | 0.05 µg/mL (≈ 0.133 µM)
Cl.N[C@H]1CCN(c2nc3c(cc2F)c(=O)c(C(=O)O)cn3-c2cnsn2)C1 [Compound 18, 7-(3-(S)-Aminopyrrolidin-1-yl)-6-fluoro-1-(1,2,5-thiadiazol-3-yl)-1,4-dihydro-4-oxo-1,8-naphthyridine-3-carboxylic acid hydrochloride] | 0.1 µg/mL | 2% | 0.2 µg/mL | 20% | < 0.013 µg/mL
Cc1nonc1-n1cc(C(=O)O)c(=O)c2cc(F)c(N3CC[C@H](N)C3)nc21 [Compound 81] | 0.2 µg/mL (≈ 0.534 µM) | – | 0.1 µg/mL (≈ 0.267 µM) | – | 0.05 µg/mL (≈ 0.134 µM)

More lines, now with the values ahead:

MIC (P. aeruginosa (IFO 3445)) | dose excreted at 24 h [1] | MIC [2] | dose excreted at 24 h [3] | MIC [4] | SMILES
0.2 µg/mL (≈ 0.514 µM) | – | 0.1 µg/mL (≈ 0.257 µM) | – | 0.013 µg/mL (≈ 0.0334 µM) | Cc1c(F)c(N2CC[C@H](N)C2)cc2c1c(=O)c(C(=O)O)cn2-c1cnsn1 [Compound 162]
0.39 µg/mL | – | 0.2 µg/mL | – | 0.05 µg/mL | Cc1nsnc1-n1cc(C(=O)O)c(=O)c2cc(F)c(N3CC[C@H](N)C3)nc21.Cl [Compound 187, 7-(3-(S)-Aminopyrrolidin-1-yl)-6-fluoro-1-(4-methyl-1,2,5-thiadiazol-3-yl)-1,4-dihydro-4-oxo-1,8-naphthyridine-3-carboxylic acid hydrochloride]
